According to patent publication US20240352066A1, “ANTIMICROBIAL COMPOUNDS AND THE METHOD OF USE” (priority 2021, published 2024):
Values after ≈ are worked out from the molar mass of the structure shown. Where a SMILES comes first, the peptide text is derived from it. [ ]: non-standard residue; d: D form. NCyclohexylmethylGly = O=C(O)CNCC1CCCCC1; N(tridecyl)Gly = CCCCCCCCCCCCCNCC(=O)O; Gly(N-2-aminoethyl) = NCCNCC(=O)O; Gly(N-cHex) = O=C(O)CNC1CCCCC1; Gly(N-cPent) = O=C(O)CNC1CCCC1; N(iPr)Gly = CC(C)NCC(=O)O; NPhGly = O=C(O)CNc1ccccc1; NHexGly = CCCCCCNCC(=O)O; Nlys = NCCCCNCC(=O)O

Columns and labels:
[1] = Mammalian cytotoxicity, MTT, HepG2; type: cell-based, human; details: human, HepG2 hepatocellular carcinoma cells
Experimental: (§1) Hepatocellular carcinoma (HepG2), mouse fibroblast (3T3), human lung (HPL1A), and human keratinocyte (HaCat) cells were cultured in Dulbecco modified eagle media (DMEM) containing 10% fetal bovine serum (FBS) and 1% penicillin, streptomycin, and glutamine (PSG) at 37° C. and 5% CO2. Cells were collected and adjusted to […] to 4×10^5 cells/mL in phenol-red free DMEM and plated (100 μL) 96 well plates. 2-fold serial dilutions of 10× peptoid (11.1 μL) were added to each well in triplicate. Water (vehicle) was used as a negative control. Plates were incubated at 37° C. in 5% CO2 for 72 hours. Thiazolyl blue tetrazolium bromide (MTT) was added to each well (5 mg/mL; 20 μL) and incubated for 3 hours. Media was removed, DMSO (100 μL) was added, and plates were incubated at 37° C. for 10 minutes. Plates were read on a SpectraMax M5 plate reader (Abs. 570 nm). The concentration of compound resulting in a 50% reduction in growth compared to control (toxicity dose 50%; TD50) was determined using GraFit. This procedure was repeated three times on separate days.
(§2) Cytotoxicity against HepG2 hepatocellular carcinoma cells was done as previously described (Green et al. ACS infectious diseases, (2022); Corson et al. ACS medicinal chemistry letters 7 12, 1139-1144 (2016)). HepG2 cells were maintained in culture in T-75 flasks using Dulbecco's Modified Eagle's Media (DMEM) with phenol red pH indicator and supplemented with 10% fetal bovine serum (FBS) and 1% penicillin, streptomycin, and glutamine (PSG). The cells were incubated at 37° C. and 5% CO2 in a humidified incubator until desired confluency was achieved. The media was removed from the flask, and the cells were washed 1× with 10 mL of phosphate-buffered saline (PBS; 11.8 mM phosphate, 140.4 mM NaCl; pH 7.4) which was then discarded. To remove the adhered cells from the flask, 2 mL of trypsin was added, and the cells were incubated for 10 minutes. To quench the trypsin, 8 mL of phenol red-free DMEM with 10% FBS and 1% PGS was added, and the cell solution was transferred to a 15 mL conical tube. After the cells were pelleted by centrifugation at 1000 rpm for 5 minutes, the supernatant was poured off and cells resuspended in the volume of phenol red-free media needed for the assay. Cell concentration was determined by counting with a hemocytometer, and the solution was diluted with media until a concentration of 1×10^5 cells/mL was achieved. A 100 μL aliquot of cell solution was added to each well of a 96-well plate, apart from the 3 wells used for a media control. Cells were incubated for 2-3 hours at 37° C. and 5% CO2 until cells were adherent.
(§3) Compound stocks of 20 mg/mL were used to prepare 2-fold serial dilutions of each compound in sterile water, giving final concentrations of 200, 100, 50, 25, 12.5, 6.25, 3.13 and 1.56 μg/mL. 11.1 μL of prepared compound solutions was added to the appropriate wells in triplicate. A negative vehicle control of sterile water, as well as the aforementioned media control, were used. The plates were incubated for 72 hours at 37° C. and 5% CO2. After incubation, 20 μL of 5 mg/mL 3-(4,5-dimethylthiazol-2-yl)-2,5-diphenyltetrazolium bromide (MTT) in water was added to each well. The plate was incubated for 3 hours at 37° C. and 5% CO2. Media was removed from each well using a sterile glass Pasteur pipette. 100 μL of DMSO was added to each well and incubated for 15 minutes at 37° C. Absorbance was read at 570 nm using a SpectraMax M5 Plate Reader. This MTT assay was performed in biological duplicate unless discrepant results were observed. If this was the case, the assay was performed in biological triplicate for further verification. The reported value is the average of biological replicates with standard deviation.

[2] = system: HepG2 hepatocellular carcinoma cells; assay: Mammalian cytotoxicity, MTT, HepG2; type: cell-based, human
Experimental: as §1, §2, §3

C. neoformans [3] = type: cell-based, Cryptococcus neoformans; details: 72 h
Experimental: The minimum inhibitory concentration (MIC) of peptoids against fungal pathogens C. albicans and C. neoformans was determined following CLSI guidelines (CLSI. Reference method for broth dilution antifungal susceptibility testing of yeasts; approved standard-third edition; CLSI document M27-A3. (Clinical and Laboratory Standards Institute, 2008). […] This inoculant was diluted 1:100 into RPMI-MOPS and then further diluted 1:20 into RPMI-MOPS. 198 μL of inoculant was seeded into each well of a 96 well black-walled plate. 2-fold serial dilutions of 100× peptoid solutions were prepared in water and 2 μL of peptoid were added to each well in triplicate. […] MIC was defined as the lowest concentration of compound preventing fungal growth. This assay was repeated 3 times on separate days with each compound. […] The addition of 0.1 mL cell solution to 9.9 mL of RPMI-MOPS produced a 1:100 cell solution. After vortexing, 0.5 mL of the […] was added to 9.5 mL RPMI-MOPS to produce a 1:20 cell solution. 198 μL of the 1:20 solution was added to the wells of an opaque 96-well plate, apart from the wells designated for the medial control. […] Amphotericin B was used as a positive control, and sterile water was used for the vehicle control. The plates were incubated for 72 hours at 35° C. After incubation, the concentration of compound resulting in no visual growth was recorded as the MIC. All assays performed in biological triplicate on different days.

[4] = Percent acetonitrile at elution during RP-HPLC purification (hydrophobicity); type: physicochemical; details: percent acetonitrile at the time of elution from HPLC
Excerpt: All RMG8-8 derivatives were synthesized via the solid-phase submonomer synthesis method on polystyrene Rink Amide resin (Zuckermann et al. Journal of the American Chemical Society 114, 10646-10647 (1992)). The amines used during synthesis and the peptoid shorthand notations for each monomer are provided in Table 7 and Table 8, respectively. Compounds were purified to greater than 95% by RP-HPLC and compound identity was confirmed by ESI-TOF MS (Table 9). The calculated distribution coefficient at pH 7.4 (c Log D7.4) (via Chemaxon. MarvinSketch 19.17.0, 2019) and the percent acetonitrile at the time of elution during HPLC purification were recorded and serve as measures of hydrophobicity (Table 10). Higher values for c Log D7.4 and percent acetonitrile are indicators of increased compound hydrophobicity. With antimicrobial peptoids, hydrophobicity is directly related to both antimicrobial activity and cytotoxicity (Andreev et al. Biochimica et biophysica acta. Biomembranes 1860 6, 1414-1423 (2018); Bolt et al. Med chem comm 8, 886-896 (2017); Frederiksen et al. Molecules 24, (2019)). The ideal balance of these parameters generally must be determined experimentally. To measure antifungal activity, the minimum inhibitory concentration (MIC), defined as the concentration of compound required to inhibit 90% of fungal growth, was determined against C. neoformans using the broth microdilution method. Mammalian cytotoxicity was evaluated through a cell metabolic activity assay with HepG2 liver carcinoma cells, and select, potentially promising compounds were tested for unwanted hemolytic activity against human red blood cells.
Peptoids were purified via Reversed-Phase High-Performance Liquid Chromatography (RP-HPLC) using a Varian Prepstar SD-1. A gradient of 0-100% water to acetonitrile containing 0.05% TFA made up the mobile phase, and a Supelco Ascentis C18 column (5 μm; 25 cm×21.2 mm; Sigma-Aldrich 581347-U) was used as the stationary phase. Peaks in the chromatogram above 0.1 AU were collected and analyzed via mass spectrometry. The peak product with the desired peptoid was dried down in vacuo and lyophilized overnight. Peptoids were then reconstituted in sterile […] deionized water to create compound stocks of 20 mg/mL.

C. neoformans [5] = assay: microbe, parasite or virus in culture; type: cell-based, Cryptococcus neoformans; details: for MIC: Cryptococcus neoformans, checkerboard, 72 hours at 35° C., read-out: MIC (compound alone); for interpretation of combination with RMG8-8: FICi<0.5 synergistic, 0.5≤FICi≤4 indifferent, FICi>4 antagonist; for Combination MIC RMG8-8:Drug, RMG8-8 part: RMG8-8 concentration in combination with the named drug; for Combination MIC RMG8-8:Drug, Drug part: drug concentration in combination with RMG8-8; for FICi: named drug in combination with RMG8-8
Experimental: Cell solution was diluted into RPMI-MOPS (1:100) followed by another dilution into RPMI-MOPS (1:20). […] Plates were incubated for 72 hours at 35° C. MIC was determined as the lowest concentration of individual compound or combined compounds inhibiting pathogen growth. Fractional inhibitory concentration index (FICi) was determine using the following equation: FICi values were interpreted as follows: FICi<0.5 synergistic; 0.5≤FICi≤4 indifferent; FICi>4 antagonist (Johnson et al., Antimicrob. Agents Chemother. 48, 693-715 (2004)).

Structure (SMILES): CCCCCCCCCCCCCNCC(=O)N(CC(=O)N(CCCC[N+](C)(C)C)CC(=O)N(CC[N+](C)(C)C)CC(=O)N(CC(N)=O)C1CCCCC1)C1CCCCC1 [Compound 1]
- CC50 at 72 h [1]: > 200 µg/mL
- HepG2 TD50 [2]: > 200 µg/mL
- C. neoformans MIC (C. neoformans [3]): 12.5 µg/mL

Structure (SMILES): CCCCCCCCCCCCCNCC(=O)N(CCCCN)CC(=O)N(CC(=O)N(CC(=O)N(CCN)CC(N)=O)C1CCCCC1)C1CCCCC1 [Compound 3] (H-[N(tridecyl)Gly][Nlys][Gly(N-cHex)][Gly(N-cHex)][Gly(N-2-aminoethyl)]-NH2)
- CC50 at 72 h [1]: 105 ± 3.8 µg/mL (≈ 138 µM)
- % ACN [4]: 69.3%
- C. neoformans MIC (C. neoformans [3]): 3.13 µg/mL

Structure (SMILES): CCCCCCCCCCCCCNCC(=O)N(CC(=O)N(CCCCN)CC(=O)N(CCN)CC(=O)N(CC(N)=O)C(C)C)C(C)C [Compound 8] (H-[N(tridecyl)Gly][N(iPr)Gly][Nlys][Gly(N-2-aminoethyl)][N(iPr)Gly]-NH2)
- CC50 at 72 h [1]: > 200 µg/mL
- HepG2 TD50 [2]: greater than 200 μg/mL
- % ACN [4]: 66.7%
- C. neoformans MIC (C. neoformans [3]): 25 µg/mL

Structure (SMILES): CCCCCCCCCCCCCNCC(=O)N(CCCCCC)CC(=O)N(CCCCN)CC(=O)N(CCN)CC(=O)N(CCCCCC)CC(N)=O [Compound 10] (H-[N(tridecyl)Gly][NHexGly][Nlys][Gly(N-2-aminoethyl)][NHexGly]-NH2)
- CC50 at 72 h [1]: 61 ± 9 µg/mL (≈ 79.5 µM)
- % ACN [4]: 73.3%
- C. neoformans MIC (C. neoformans [3]): 1.56 to 3.13 µg/mL

Structure (SMILES): CCCCCCCCCCCCCNCC(=O)N(CC(=O)N(CCCCN)CC(=O)N(CCN)CC(=O)N(CC(N)=O)C1CCCC1)C1CCCC1 [Compound 11] (H-[N(tridecyl)Gly][Gly(N-cPent)][Nlys][Gly(N-2-aminoethyl)][Gly(N-cPent)]-NH2)
- CC50 at 72 h [1]: > 200 µg/mL
- HepG2 TD50 [2]: greater than 200 μg/mL
- % ACN [4]: 68.1%
- C. neoformans MIC (C. neoformans [3]): 6.25 µg/mL

Structure (SMILES): CCCCCCCCCCCCCNCC(=O)N(CC(=O)N(CCCCN)CC(=O)N(CCN)CC(=O)N(CC(N)=O)CC1CCCCC1)CC1CCCCC1 [Compound 12] (H-[N(tridecyl)Gly][NCyclohexylmethylGly][Nlys][Gly(N-2-aminoethyl)][NCyclohexylmethylGly]-NH2)
- CC50 at 72 h [1]: 62 ± 3 µg/mL (≈ 78.4 µM)
- % ACN [4]: 71.4%
- C. neoformans MIC (C. neoformans [3]): 1.56 to 3.13 µg/mL

Structure (SMILES): CCCCCCCCCCCCCNCC(=O)N(CC(=O)N(CCCCN)CC(=O)N(CCN)CC(=O)N(CC(N)=O)CC1CCCO1)CC1CCCO1 (stereo not shown) [Compound 13]
- CC50 at 72 h [1]: > 200 µg/mL
- HepG2 TD50 [2]: greater than 200 μg/mL
- % ACN [4]: 67.3%
- C. neoformans MIC (C. neoformans [3]): 12.5 to 25 µg/mL

Structure (SMILES): CCCCCCCCCCCCCNCC(=O)N(CC(=O)N(CCCCN)CC(=O)N(CCN)CC(=O)N(CC(N)=O)c1ccccc1)c1ccccc1 [Compound 14] (H-[N(tridecyl)Gly][NPhGly][Nlys][Gly(N-2-aminoethyl)][NPhGly]-NH2)
- CC50 at 72 h [1]: 81 ± 25 µg/mL (≈ 108 µM)
- % ACN [4]: 67.7%
- C. neoformans MIC (C. neoformans [3]): 1.56 to 3.13 µg/mL

Structure (SMILES): OC(Cn1cncn1)(Cn1cncn1)c1ccc(F)cc1F [Fluconazole]
- MIC (C. neoformans [5]): 2 µg/mL
- interpretation of combination with RMG8-8 (C. neoformans [5]): indifferent
- Combination MIC RMG8-8:Drug, RMG8-8 part (C. neoformans [5]): 1.56 µg/mL
- Combination MIC RMG8-8:Drug, Drug part (C. neoformans [5]): 2 µg/mL
- FICi (C. neoformans [5]): 2

Structure (SMILES): Nc1[nH]c(=O)ncc1F [Flucytosine]
- MIC (C. neoformans [5]): 2 µg/mL
- interpretation of combination with RMG8-8 (C. neoformans [5]): indifferent
- Combination MIC RMG8-8:Drug, RMG8-8 part (C. neoformans [5]): 1.56 µg/mL
- Combination MIC RMG8-8:Drug, Drug part (C. neoformans [5]): 2 µg/mL
- FICi (C. neoformans [5]): 2
